Measured values published in US12644143B2, “Method for the determination of antibiotic susceptibility through stimulated Raman metabolic imaging” (priority 2017, dated 2026).
Converted amounts (≈) assume the structure as drawn.

Experiments:
Format in all cases: cell-based
E. coli = tested on: E. coli
Method: (§1) The toxicity of D2O was first tested on bacteria by measuring the growth in a D2O containing medium. Three types of bacteria (E. coli, S. aureus, and P. aeruginosa) were cultured at different concentrated D2O containing LB medium, and their growth were monitored with optical density (OD) measurement at about 600 nm.

P. aeruginosa [1] = tested on: P. aeruginosa
Method: as §1

S. aureus = tested on: S. aureus
Method: as §1

P. aeruginosa [2] = assay: conventional culture-based microdilution method; conditions: 20 μg/ml
Method: (§2) P. aeruginosa were cultivated in 70% D2O containing LB medium, with the addition of 20 μg/ml gentamicin or cefotaxime to determine the antibiotic effect on the metabolic activity of D2O in bacteria, and wherein it is suitable for use of rapid AST with SRS imaging. The susceptibility of P. aeruginosa were pre-determined to be susceptible to gentamicin and resistant to cefotaxime at this concentration using conventional culture-based microdilution method. […] This filamentary formation may also be observed when P. aeruginosa was treated with other β-lactam antibiotics 10.

P. aeruginosa [3] = assay: SRS imaging of D2O metabolic activity (C-D signal at 2162 cm-1); conditions: for C-D signal / metabolic activity of D2O in SRS imaging: 10 minutes to 3 hours; for average C-D signal intensity relative to about 65% of control threshold: all time points about 10 minutes to about 3 hours
Method: A 70% D2O containing LB medium was provided to cultivate bacteria, and used P. aeruginosa as a model to test whether the D2O metabolic activity in single bacterium can be monitored by SRS microscope. P. aeruginosa was separately cultivated in normal LB and 70% D2O containing LB medium for about 2 hours, and then centrifuged and washed in water to remove the culture medium. […] To image single bacterium, bacteria were further diluted and deposited on an agarose gel pad. […] The results were confirmed by SRS spectrum (FIG. 16C) obtained through temporal tuning of chirped pump and Stokes femtosecond pulses.
A time lapse of D2O metabolic activity can be carried out in single P. aeruginosa with femtosecond SRS imaging. P. aeruginosa was first cultivated in about 70% D2O containing LB medium for up to about 3 hours, at different time points, about 500 μl bacteria were centrifuged, washed and deposited on agarose gel pad for imaging. […] To view individual bacterium more clearly, the images in FIG. 18A were further zoomed in FIG. 18B.
as §2
The D2O metabolic activity of bacteria can be used to rapid differentiate the antibiotic susceptibility of bacteria and examined using the average C-D signal intensity of bacteria being compared between three groups shown in FIGS. 19C-H, the control without antibiotics treatment (FIG. 18A), treated with gentamicin (FIG. 19A), and treated with cefotaxime (FIG. 19B). […] Therefore, the susceptibility of P. aeruginosa to gentamicin and cefotaxime can be determined in as short as about 10 minutes.
The SRS metabolic imaging method can determine the minimal inhibitory concentration (MIC) of antibiotics to bacteria and was done by cultivating P. aeruginosa in about 70% D2O containing LB medium for about 1 hour with the addition of gentamicin with serial diluted concentration. […] With the 65% intensity threshold, the MIC was determined to be about 8 μg/ml with SRS-based D2O metabolic imaging method, which is consistent to the result determined by the conventional culture-based method.

[4] = tested on: E. faecalis 31970 (vancomycin susceptible enterococci, VSE); assay: MIC by conventional culture based method
[5] = tested on: E. faecalis 31970 (vancomycin susceptible enterococci, VSE); assay: SRS metabolic imaging of glucose-d7 uptake (C-D signal) for AST; conditions: for susceptibility of E. faecalis 31970 based on metabolic imaging method: 20 μg/mL antibiotic; for C-D signal in SRS imaging versus control: E. faecalis 31970, 20 μg/mL antibiotic; for intensity of C-D component versus control: 1 hour
Method: (§3) The SRS imaging based method of the present disclosure can determine the susceptibility of bacteria to antibiotics within about […]. A bacteria solution for testing through SRS imaging and placement on the agarose gel pad can be prepared by cultivating bacteria in a broth, such as a Lysogeny broth (LB) (LB Broth, Sigma Aldrich) for about two hours to reach to log phase. The bacteria can then added in a ratio between about 0.1:100 to about a 10:100 ratio to 2 mL of various types of medium. In one exemplary embodiment, the ration can be about 1:100 to 2 ML of medium, such as a specialized medium. Some exemplary embodiments can use D2O medium or other specialized medium herein referred to as M9 medium wherein about a 2% glucose-d7 can be only carbon source. The M9 medium is developed and selected to maximize the signal within the C-D vibrational region. To measure the resistance of a given bacteria to an antibiotic, the antibiotic is added to the specialized medium to a concentration of about 20 μg/mL. After at least about 30 minutes of incubation about 500 μl of the sample is centrifuged, washed twice with purified water, and deposited to an agarose gel pad for imaging. An imaging setup of illustrated in FIG. 1A can be utilized to process the sample.
Referring now to FIG. 2A-D the method of the present disclosure can generally be performed in an exemplary method to determine effectiveness utilizing an antibiotic, such as vancomycin. Accordingly, the method can be utilized to examine the influence of antibiotics to the metabolic uptake of glucose-d7 by bacteria. Vancomycin susceptible (VSE) and Vancomycin resistant (VRE) enterococci E. faecalis can first be grown to a log phase by cultivating in LB medium for about 2 hours, then VSE and VRE can further be cultivated in M9 medium with about 2% glucose-d7 as the sole carbon source, respectively, with the addition of vancomycin to a final concentration of about 20 μg/mL (FIG. 2A). Other embodiments can include various types of carbon source as a sole carbon source or in combination with other carbon or nutrient sources. One exemplary embodiment can use a nutrient source of about 0-100% deuterium dioxide. Similarly, the carbon source can include a combination of deuterium dioxide and glucose-d7. This concentration was chosen because it is between the minimum inhibitory concentrations (MICS) of vancomycin to VSE (MIC is 1 μg/mL) and to VRE (MIC is >100 μg/mL). For control, VSE and VRE were cultivated in glucose-d7 containing medium without the addition of vancomycin (FIG. 2a). After 30 minutes (0.5 hours) to 3 hours incubation, each sample was centrifuged and washed twice in water, and then deposited on an agarose gel pad for SRS imaging.
(§4) To quantify the C-D content of the E. faecalis cells and the response of bacteria to the treatment of antibiotics, multivariate curve resolution (MCR) analysis is applied to retrieve the C-D component from hyperspectral SRS imaging data shown in FIGS. 3A-D. MCR is a bilinear model which decomposes the experimental data matrix that contains spectrum at each pixel into concentration maps and spectra of principle components. With an initial estimated spectrum of each component as the input, MCR is calculated and optimized iteratively using alternating least squares algorithm until convergence is reached. The output of MCR contains the concentration map and spectrum of each component. Referring now to FIG. 3A-D the spectra of glucose-d7, which represented the C-D component, and gel, which represented the background, were used as the input components. After MCR analysis, C-D component can be clearly separated from the background and utilized to quantify the contents of the collected SRS imaging data.
The MIC, defined as the lowest concentration of antibiotic that is able to inhibit the visible growth of bacteria in vitro, can be determined by our metabolic imaging method. […]

E. faecalis 31970 = tested on: E. faecalis 31970
Method: (§5) To test the toxicity of glucose-d7 to bacteria, E. faecalis 31970 and 31972 were cultivated in custom-made M9 medium, one with normal glucose for control and the other with glucose-d7. The growth of bacteria was monitored by optical density (OD) measurement at 600 nm for up to 22 hours (FIG. 9). […] FIG. 9A illustrates OD measurement for vancomycin susceptible enterococci cultured in M9 medium with either 2% normal glucose or 2% glucose-d7, whereas FIG. 9B illustrates OD measurement for vancomycin resistant enterococci cultured in M9 medium with either 2% normal glucose or 2% glucose-d7.

E. faecalis 31972 = tested on: E. faecalis 31972
Method: as §5

[6] = tested on: S. aureus strain susceptible to oxacillin; assay: MIC of oxacillin; conditions: Staphylococcus aureus
[7] = tested on: S. aureus strain resistant to oxacillin; assay: SRS metabolic imaging of deuterated glucose (C-D peak); conditions: 1.3 μg/ml oxacillin, 0.5 h, glucose-d2 containing medium
Method: (§6) The metabolic activity of glucose-d2 can be observed in single bacterium cultivated in glucose-d2 containing medium for 0.5 h by SRS imaging (FIG. 11B). […] Therefore, susceptible and resistant S. aureus can be determined in about 0.5 h.

[8] = tested on: S. aureus strain susceptible to oxacillin; assay: as above; conditions: 1.3 μg/ml oxacillin, 0.5 h, glucose-d2 containing medium
Method: as §6

[9] = tested on: vancomycin resistant (VRE) enterococci E. faecalis; assay: MIC by conventional culture based method; conditions: Enterococcus
[10] = tested on: vancomycin resistant (VRE) enterococci E. faecalis; assay: SRS metabolic imaging of glucose-d7 uptake (C-D signal) for AST; conditions: for intensity of C-D component after MCR versus control: 20 μg/ml
Method: as §3, with “sample. […]” for “sample.”
as §4, with “The output of MCR contains the concentration map and spectrum of each component. Referring now to FIG. 3A-D the spectra of glucose-d7, which represented the C-D component, and gel, which represented the background, were used as the input components.” left out, “data. […]” for “data.”

[11] = Enterococcus faecalis, conventional culture based method, E. faecalis 31970 (VSE), read-out: MIC

## [2H]O[2H] [D2O]
E. coli
  toxicity to growth: did not show significant toxicity
P. aeruginosa [1]
  growth of P. aeruginosa: initially slowed down
S. aureus
  toxicity to growth: did not show significant toxicity

## CO/N=C(\C(=O)N[C@@H]1C(=O)N2C(C(=O)O)=C(COC(C)=O)CS[C@H]12)c1csc(N)n1 [cefotaxime]
P. aeruginosa [2]
  susceptibility of P. aeruginosa pre-determined by microdilution: resistant
P. aeruginosa [3]; 20 μg/ml, 70% D2O LB medium
  bacterial morphology on cultivation with antibiotic: tends to form long rods
  C-D signal / metabolic activity of D2O in SRS imaging: active metabolic activity of D2O
P. aeruginosa [3]; 20 μg/ml
  average C-D signal intensity relative to about 65% of control threshold: always above the threshold

## CCCCCCCCCC(=O)N[C@@H](Cc1c[nH]c2ccccc12)C(=O)N[C@H](CC(N)=O)C(=O)N[C@@H](CC(=O)O)C(=O)N[C@@H]1C(=O)NCC(=O)N[C@@H](CCCN)C(=O)N[C@@H](CC(=O)O)C(=O)N[C@H](C)C(=O)N[C@@H](CC(=O)O)C(=O)NCC(=O)N[C@H](CO)C(=O)N[C@@H]([C@H](C)CC(=O)O)C(=O)N[C@@H](CC(=O)c2ccccc2N)C(=O)O[C@@H]1C [daptomycin]
[4]; [11]
  MIC: 32 µg/mL (≈ 19.7 µM)
[5]; 1 h
  susceptibility of E. faecalis 31970 based on metabolic imaging method: resistant

## CC[C@H]1OC(=O)[C@H](C)[C@@H](O[C@H]2C[C@@](C)(OC)[C@@H](O)[C@H](C)O2)[C@H](C)[C@@H](O[C@@H]2O[C@H](C)C[C@H](N(C)C)[C@H]2O)[C@](C)(O)C[C@@H](C)C(=O)[C@H](C)[C@@H](O)[C@]1(C)O [erythromycin]
[4]; [11]
  MIC: > 256 µg/mL
[5]; 1 h
  susceptibility of E. faecalis 31970 based on metabolic imaging method: resistant

## [2H]C(=O)[C@]([2H])(O)[C@@]([2H])(O)[C@]([2H])(O)[C@]([2H])(O)C([2H])([2H])O [glucose-d7]
E. faecalis 31970
  toxicity to bacterial growth: no toxicity
E. faecalis 31972
  toxicity to bacterial growth: no toxicity

## CC(=O)NC[C@H]1CN(c2ccc(N3CCOCC3)c(F)c2)C(=O)O1 [linezolid]
[4]; [11]
  MIC: 2 µg/mL (≈ 5.93 µM)
[5]; 1 h
  susceptibility of E. faecalis 31970 based on metabolic imaging method: susceptible
  C-D signal in SRS imaging versus control: significant reduction

## Cc1onc(-c2ccccc2)c1C(=O)N[C@@H]1C(=O)N2[C@@H]1SC(C)(C)[C@@H]2C(=O)O [oxacillin]
[6]
  MIC: 0.0625 µg/mL
[7]
  C-D peak versus untreated control: no significant change
[8]
  C-D peak versus untreated control: reduction in C-D peak

## CN[C@H](CC(C)C)C(=O)N[C@H]1C(=O)N[C@@H](CC(N)=O)C(=O)N[C@H]2C(=O)N[C@H]3C(=O)N[C@H](C(=O)N[C@H](C(=O)O)c4cc(O)cc(O)c4-c4cc3ccc4O)[C@H](O)c3ccc(c(Cl)c3)Oc3cc2cc(c3O[C@@H]2O[C@H](CO)[C@@H](O)[C@H](O)[C@H]2O[C@H]2C[C@](C)(N)[C@H](O)[C@H](C)O2)Oc2ccc(cc2Cl)[C@H]1O [vancomycin]
[4]; Enterococcus faecalis
  MIC: 1 µg/mL (≈ 0.69 µM)
[9]
  MIC: > 100 µg/mL
[5]; 1 h
  susceptibility of E. faecalis 31970 based on metabolic imaging method: susceptible
  C-D signal in SRS imaging versus control: significant reduction
[5]; 20 μg/mL vancomycin, 30 minutes in glucose-d7 medium, fraction of control
  intensity of C-D signal for individual VSE relative to control group: about ⅓
[5]; Enterococcus faecalis, 1 h, read-out: MIC determined by metabolic imaging method
  MIC: 2 µg/mL
[5]; VSE, 1 μg/mL vancomycin
  intensity of C-D component versus control: did not reduce
[5]; VSE, 2 μg/mL or higher vancomycin
  intensity of C-D component versus control: significantly reduced
[5]; VSE, 20 μg/mL vancomycin, 30 minutes
  normalized SRS spectra, signal intensity in C-D region versus control: reduced the signal intensity
[5]; VSE, 20 μg/ml, 0.5, 1 and 3 h (p 2.2×10^−13, 2.0×10^−11, 3.9×10^−15)
  intensity of C-D component after MCR versus control: significantly reduced
[10]; 20 μg/mL vancomycin, 30 minutes
  normalized SRS spectra, signal intensity in C-D region with and without treatment: remain the same
[10]; 0.5 to 3 h
  intensity of C-D component after MCR versus control: did not significantly reduce
[10]; 3 h (p-value 5×10^−4)
  intensity of C-D component after MCR versus control: higher intensity of C-D component than the control group

## gentamycin
[4]; conventional culture based method, E. faecalis 31970 (VSE)
  MIC: >256 µg/mL
[5]; 1 h
  susceptibility of E. faecalis 31970 based on metabolic imaging method: resistant
P. aeruginosa [2]
  susceptibility of P. aeruginosa pre-determined by microdilution: susceptible
P. aeruginosa [3]; 20 μg/ml, 70% D2O LB medium
  C-D signal / metabolic activity of D2O in SRS imaging: significantly reduced
P. aeruginosa [3]; 20 μg/ml
  average C-D signal intensity relative to about 65% of control threshold: always below the threshold
P. aeruginosa [3]; about 1 hour, 70% D2O LB medium
  gentamicin concentration at which D2O metabolic activity was inhibited: ≥ 8 µg/mL
P. aeruginosa [3]; about 1 hour, 70% D2O LB medium, 65% intensity threshold
  MIC with SRS-based D2O metabolic imaging method: about 8 μg/ml
